# Experiments:
# [1] = test system: A549 (human non-small cell lung cancer); test: Antiproliferative activity (SRB assay); format: cell-based; details: mean ± SD, three separated experiments, 72 h
# Protocol: (§1) MCF-7, MGC-803, Hela and HepG-2 cell lines were cultured in a base medium (90% DMEM and 10% FBS), A549 and U937 were cultured in a base medium (90% PRMI-1640 and 10% FBS) at 37 °C, 5% CO2 and a saturated humidity atmosphere. All the mediums were supplemented with 10% FBS and 1% […]/streptomycin (all cells were purchased from Shanghai Institutes for Biological Sciences, Chinese Academy of Sciences, Shanghai, China).
# (§2) A549, MGC-803, MCF-7, HepG2 and Hela cells were seeded at the appropriate cell line density (3 × 10^3 to 4 × 10^3 cells/well). The cells were then incubated at 37 °C for 24 h in a humidified 5%CO2 in 96-well plates prior to experiments. After a further 72 h of incubation, cell proliferation was quantified with SRB ([…]) to determine the number of surviving cells. The absorbance at 560 nm was measured by microplate. The experiment was repeated three times, and the data were listed in the form of mean and standard deviation.
# [2] = test system: Hela (human cervical cancer cells); test: Antiproliferative activity (SRB assay); format: cell-based; details: mean ± SD, three separated experiments, 72 h
# Protocol: as §1, §2
# [3] = test system: HepG2 (human liver cancer cells); test: Antiproliferative activity (SRB assay); format: cell-based; details: mean ± SD, three separated experiments, 72 h
# Protocol: as §1, §2
# [4] = test system: MCF-7 (human breast cancer cells); test: Antiproliferative activity (SRB assay); format: cell-based; details: MCF7, mean ± SD, three separated experiments, 72 h
# Protocol: as §1, §2
# [5] = test system: U937 (human leukaemia cells); test: Antiproliferative activity (CCK-8 assay); format: cell-based; details: U-937, mean ± SD, three separated experiments, 72 h
# Protocol: as §1
# (§3) MGC-803 cells were collected and seeded into 96 well plates at a density of 8000/well. The mediums containing drugs and cell suspension were added into the well. The cells were incubated in 5% CO2 incubator at 37 °C for 72 h. Each well was added 10 µL CCK8 solution, and the incubation time was 3–4 h. The absorbance value at 450 nm was measured by microplate reader. Data are calculated with GraphPad Prism5 software.
# [6] = test system: MGC-803 (human gastric cancer cells); test: Antiproliferative activity (SRB / CCK-8 assay); format: cell-based; details: mean ± SD, three separated experiments, 72 h
# Protocol: as §1, §2, §3
# [7] = test system: six human cancer cell lines (MCF-7, MGC-803, HepG2, Hela, A549, U937); test: Antiproliferative activity, summary over the tested cancer cell lines; format: cell-based; details: tested cancer cell lines, read-out: IC50, anti-proliferative activity
# Protocol: as §2, §3
SMILES,IC50 [1] [µM],IC50 [2] [µM],IC50 [3] [µM],IC50 [4] [µM],IC50 [5] [µM],IC50 [6] [µM],melting point [°C],IC50 [7] [µM]
"COc1cc(C(=O)/C(F)=C/c2c(C)[nH]c3ccccc23)cc(OC)c1OC [4e, (Z)-2-fluoro-3–(2-methyl-1H-indol-3-yl)-1–(3,4,5-trimethoxyphenyl)prop-2-en-1-one]",> 5,0.101 ± 0.031,1.385 ± 0.001,0.551 ± 0.014,0.123 ± 0.011,0.072 ± 0.002,204 to 206.4,–
"COc1cc(C(=O)/C(F)=C/c2cc3c(cc2[N+](=O)[O-])OCO3)cc(OC)c1OC [4r, (Z)-2-fluoro-3–(6-nitrobenzo[d][1,3]dioxol-5-yl)-1–(3,4,5-trimethoxyphenyl)prop-2-en-1-one]",> 5,> 5,> 5,> 5,> 5,> 5,174.7 to 176.6,–
"COc1cc(C(=O)/C(F)=C/c2cc3c(cc2Br)OCO3)cc(OC)c1OC [4l, (Z)-3–(6-bromobenzo[d][1,3]dioxol-5-yl)-2-fluoro-1–(3,4,5-trimethoxyphenyl)prop-2-en-1-one]",> 5,> 5,> 5,> 5,> 5,> 5,156.3 to 157.8,–
"COc1cc(C(=O)/C(F)=C/c2cc3ccccc3o2)cc(OC)c1OC [4o, (Z)-3-(benzofuran-2-yl)-2-fluoro-1–(3,4,5-trimethoxyphenyl)prop-2-en-1-one]",> 5,> 5,> 5,4.408 ± 0.043,> 5,3.301 ± 0.026,115.5 to 116.6,–
"COC(=O)c1ccc2c(/C=C(\F)C(=O)c3cc(OC)c(OC)c(OC)c3)c[nH]c2c1 [4a, Methyl(Z)-3–(2-fluoro-3-oxo-3–(3,4,5-trimethoxyphenyl)prop-1-en-1-yl)-1H-indole-6-carboxylate]",> 5,> 5,> 5,> 5,> 5,> 5,207.3 to 209.1,> 5
"COc1cc(C(=O)/C(F)=C/c2sc3ccccc3c2C)cc(OC)c1OC [4i, (Z)-2-fluoro-3–(3-methylbenzo[b]thiophen-2-yl)-1–(3,4,5-trimethoxyphenyl)prop-2-en-1-one]",> 5,> 5,> 5,> 5,> 5,> 5,140.5 to 143.4,–
"COC(=O)c1cccc2[nH]cc(/C=C(\F)C(=O)c3cc(OC)c(OC)c(OC)c3)c12 [4f, Methyl(Z)-3–(2-fluoro-3-oxo-3–(3,4,5-trimethoxyphenyl)prop-1-en-1-yl)-1H-indole-4-carboxylate]",> 5,> 5,> 5,> 5,> 5,> 5,118 to 119,> 5
"COc1cc(C(=O)/C(F)=C/c2cccc3c2OCO3)cc(OC)c1OC [4k, (Z)-3-(benzo[d][1,3]dioxol-4-yl)-2-fluoro-1–(3,4,5-trimethoxyphenyl)prop-2-en-1-one]",> 5,0.565 ± 0.012,3.298 ± 0.007,0.441 ± 0.001,0.806 ± 0.024,0.166 ± 0.004,148.1 to 149.1,–
"COc1cc(C(=O)/C(F)=C/c2c(-c3ccccc3)[nH]c3ccccc23)cc(OC)c1OC [4b, (Z)-2-fluoro-3–(2-phenyl-1H-indol-3-yl)-1–(3,4,5-trimethoxyphenyl)prop-2-en-1-one]",3.635 ± 0.001,0.685 ± 0.002,0.883 ± 0.041,0.551 ± 0.022,0.562 ± 0.02,0.202 ± 0.023,150.7 to 152.4,–
"COc1cc(C(=O)/C(F)=C/c2oc3ccccc3c2C)cc(OC)c1OC [4p, (Z)-2-fluoro-3–(3-methylbenzofuran-2-yl)-1–(3,4,5-trimethoxyphenyl)prop-2-en-1-one]",> 5,> 5,> 5,> 5,> 5,> 5,117.4 to 118.8,–
"COc1cc(C(=O)/C(F)=C/c2nc3ccccc3[nH]2)cc(OC)c1OC [4j, (Z)-3-(1H-benzo[d]imidazol-2-yl)-2-fluoro-1–(3,4,5-trimethoxyphenyl)prop-2-en-1-one]",> 5,> 5,> 5,> 5,> 5,> 5,178.9 to 180.9,–
"COc1cc(C(=O)/C(F)=C/c2ccc3oc4ccccc4c3c2)cc(OC)c1OC [4q, (Z)-3-(dibenzo[b,d]furan-2-yl)-2-fluoro-1–(3,4,5-trimethoxyphenyl)prop-2-en-1-one]",> 5,> 5,> 5,> 5,> 5,> 5,114 to 116.4,–
"COc1cc(C(=O)/C(F)=C/c2ccc3sc4ccccc4c3c2)cc(OC)c1OC [4s, (Z)-3-(dibenzo[b, d]thiophen-2-yl)-2-fluoro-1–(3,4,5-trimethoxyphenyl)prop-2-en-1-one]",> 5,> 5,> 5,> 5,> 5,> 5,142.6 to 143.8,–
"COc1cc(C(=O)/C(F)=C/c2coc3ccccc23)cc(OC)c1OC [4t, (Z)-3-(benzofuran-3-yl)-2-fluoro-1–(3,4,5-trimethoxyphenyl)prop-2-en-1-one]",1.02 ± 0.064,0.203 ± 0.006,1.063 ± 0.008,1.293 ± 0.007,0.125 ± 0.002,–,103.7 to 104.8,–
"COc1cc(C(=O)/C(F)=C/c2cc3ccccc3s2)cc(OC)c1OC [4h, (Z)-3-(benzo[b]thiophen-2-yl)-2-fluoro-1–(3,4,5-trimethoxyphenyl)prop-2-en-1-one]",2.57 ± 0.159,2.493 ± 0.002,5.976 ± 0.004,2.101 ± 0.003,0.606 ± 0.026,1.897 ± 0.001,122.2 to 123.6,–
"COc1cc(C(=O)/C(F)=C/c2ccc3occc3c2)cc(OC)c1OC [4m, (Z)-3-(benzofuran-5-yl)-2-fluoro-1–(3,4,5-trimethoxyphenyl)prop-2-en-1-one]",> 5,0.925 ± 0.007,1.407 ± 0.014,1.002 ± 0.007,0.71 ± 0.027,0.362 ± 0.123,94.1 to 94.2,–
"COc1cc(C(=O)/C(F)=C/c2csc3ccccc23)cc(OC)c1OC [4g, (Z)-3-(benzo[b]thiophen-3-yl)-2-fluoro-1–(3,4,5-trimethoxyphenyl)prop-2-en-1-one]",0.505 ± 0.01,0.072 ± 0.001,0.199 ± 0.006,0.121 ± 0.012,0.456 ± 0.013,0.021 ± 0.007,118 to 119,–
